Test results from a melting point compilation (Tetko et al.; mined from patent text by program, amines drawn as free bases though some values may be those of a salt).

melting point [°C]	SMILES
104 to 105	CN(CCc1ccc([N+](=O)[O-])cc1)Cc1ccc2cc([N+](=O)[O-])ccc2n1
132 to 134	CCOC(=O)c1cc(C(=O)c2ccccc2Cl)c(-n2c(C)nnc2CNC(=O)Nc2cccc(OC)c2)s1
170 to 171	CC(C)Oc1cc(/C=C/C(=O)O)n(Cc2ccc(Cl)cc2Cl)n1
160	COc1ccc(CCN(C)CCCOc2ccc(NC(=O)c3cccc4c(=O)c5ccccc5[nH]c34)cc2)cc1
92 to 94	CCOC(=O)C1(Nc2cc(Cl)cc(Cl)c2)CC(C(=O)O)Nc2cc(Cl)cc(Cl)c21 (stereo not drawn)
166	C#Cc1ccc(Nc2c(C(=O)c3nccn3C)ccc(F)c2F)c(F)c1
184 to 186	COc1ccc(/C=C/C(=O)Nc2ccccc2C(N)=O)cc1OC
227	CN(C)c1ccc(-c2cc(C(F)(F)F)c3c(-c4ccccc4)n[nH]c3n2)cc1
64 to 66	C[C@H]1C[C@@](O)(c2csc(S(=O)(=O)c3ccc4c(c3)CCC(=O)N4C)c2)CCO1
154 to 156	CCN(CC)CCCNc1ncc2cc(-c3c(Cl)cccc3Cl)c(=N)n(C)c2n1
240 to 242	CC(=O)Oc1c(C)cc(NC(=O)Nc2c(-c3ccccc3C)c3cc(Cl)c(C)cc3oc2=O)cc1C
93 to 94	CNc1sc(Cl)cc1C(=O)c1ccccc1F
155 to 156	CCC=C1C([N+](=O)[O-])C2SCCCN2C(=O)N1C (stereo not drawn)
205 to 208	COc1ccc(OCC(O)CN2CCN(c3ccccc3C(=O)O)CC2C)c(C(C)(C)C)c1 (stereo not drawn)
89 to 90	O=C(CCCCCl)c1cc2c3c(c1)CC(=O)N3CCC2
281 to 282	O=C1c2cccc(SCc3ccccc3)c2C(=O)c2cccc(SCc3ccccc3)c21
208 to 209	CCc1nc2c(N)nc3cc(OCc4ccccc4)ccc3c2s1
93 to 95	CCN(CC)c1nc2ccccc2n2c(C(C)C)nnc12
96 to 98	CCOCC1COc2c(cc(N)cc2C(F)(F)F)O1 (stereo not drawn)
179 to 181	C#Cc1c[nH]c2ncnc(N3CCCCC3)c12
340	Cc1n[nH]c2c(O)ncnc12
181 to 185	CCOC(=O)c1nc2ncnc(NCc3ccccc3)c2[nH]1
184 to 186	COc1ccc(S(=O)(=O)N2C(=O)C(O[Si](C)(C)C)(c3ccccc3F)c3cc(Cl)ccc32)c(OC)c1 (stereo not drawn)

melting point [°C]	SMILES
172 to 174	CCC(C)S(=O)(=O)NC(=O)Nc1ccc(Cl)cc1 (stereo not drawn)
196	COc1cccc(N2CCN(S(=O)(=O)c3cccc(/C=C/C(=O)NO)c3)CC2)c1
148 to 150	CC(=O)Nc1ccc(Sc2cccn3nc(Cl)nc23)cc1
113 to 114	COc1ccccc1CN1CCC(=O)C(C2c3ccccc3C=Cc3ccccc32)C1 (stereo not drawn)
104 to 105	OCc1ccc(N(c2ccccc2)c2ccccc2)cc1
188 to 192	COc1cc2c3c(c1)[nH]c(=S)n3CCC2
154	O=C1C[C@H](C(=O)Nc2ccc(N3CCOCC3=O)cc2)N(C(=O)Nc2ccc(Cl)cc2)C1
214 to 215	CCc1cc(-c2nc(C)c(-c3ccnc(Nc4ccc(N5CCOCC5)cc4)n3)s2)ccn1
171 to 173	C=CCN(CC=C)c1nc(NC(=O)OCc2ccccc2)n2oc(=O)nc2n1
177 to 178	Cc1nc(N2CCCC(Cc3ccc(C(F)(F)F)cc3)C2=O)sc1C(=O)NCc1cccc(F)c1 (stereo not drawn)
> 250	N#CC1=C(c2ccccc2)Nc2n[nH]cc2C1c1cccc(C(F)(F)F)c1Cl (stereo not drawn)
220	CC(C)(C)OC(=O)N1CCC(c2n[nH]c(-c3ccccn3)n2)CC1
199 to 200	COc1c(F)c(F)c(C(=O)C=C2OC(=O)c3ccccc32)c(F)c1F
119 to 120	CN(Cc1cc2c3c(c1)c(=O)c(C(=O)NCc1ccc(Cl)cc1)cn3CC(=O)N2C)C[C@@H](O)c1ccco1
134 to 135	CN(C(N)=O)c1cc(C(C)(C)C)on1
203	Cc1nn(C)c(NC(=O)Nc2ccccc2)c1C1=CCCCC1
147 to 149	O=C(Nc1ccc(-n2nc(C(F)(F)F)cc2C(F)(F)F)cc1)c1cccc(F)c1F
193 to 196	CC1(C)Oc2ccc(C#N)cc2C(Oc2cccnc2)C1(C)O (stereo not drawn)
242 to 246	Nc1nc(-n2cc(C(=O)O)c(=O)c3cc(F)c(F)c(Cl)c32)ncc1F
125 to 126	Cc1ccc(-c2cc(F)c(F)cc2-c2ccc(S(C)(=O)=O)cc2)cc1C
222 to 224	CCCCc1nc(CO)c(C(N)=O)n1Cc1ccc(-c2ccccc2C(=O)OC(C)(C)C)cc1
247 to 252	CNC(=O)C(Cc1ccc(OC)cc1)NC(=O)C(CC(C)C)C(S)CC(=O)NCC(N)=O (stereo not drawn)
81 to 83	CCOC(=O)C(=CNc1cnsn1)C(=O)c1cc(F)c(F)c(F)c1F

melting point [°C]	SMILES
79 to 81.1	COc1cc(OC)cc(-c2nc[nH]c2-c2ccc(N(C)C)cc2)c1
109 to 112	O=C(Nc1ccc(Cl)c(Cl)c1)NS(=O)(=O)c1ccc2c(c1)C(O)CO2 (stereo not drawn)
214 to 220	COc1ccc2c(C=O)c(OCc3ccccc3)ccc2c1Br
213 to 214	CCc1ccc2c(c1)NC(=S)C2=O
102 to 104	CCOC(=O)C1=C(C)NC(C)=C(C(=O)OCC)C1c1cc(Cl)cc(Cl)c1
123 to 132	CC(C)(C)NC(=O)[C@@H]1CCCN1C(=O)[C@@H](O)[C@H](Cc1ccccc1)NC(=O)[C@H](CC(N)=O)NC(=O)COc1ccc(NC(=O)CNCCN2CCOCC2)cc1
144 to 146	Nc1cccc(Oc2ccc(-c3ccc(Oc4cccc(N)c4)cc3)cc2)c1
74 to 76	CC(C)(C)C(=O)C(=Cc1cccnc1)Oc1ccc(Cl)cc1
143 to 148	CN1C(=O)CC[C@]2(C)c3ccc(-c4ccc(F)c(F)c4)cc3CC[C@@H]12
250 to 252	N#Cc1c(Cl)c(Cl)n(C#N)c1-c1ccc(Cl)c(Cl)c1
213 to 216	O=C(O)C1=Cc2cc(Cl)c(Oc3cccnc3Cl)cc2OC1C(F)(F)F (stereo not drawn)
74 to 75	CCCc1c(O)c(C(C)=O)c(C)c2c1OC(C)(C)CC2C (stereo not drawn)
96 to 99	CCc1nc2c(C)cc(C)nc2n1Cc1ccc(C(Cc2nnn[nH]2)c2ccc(OC)cc2)cc1 (stereo not drawn)
241 to 245	COc1ccc(C(=O)Nc2ccncc2)c2c3cc(Cl)ccc3n(Cc3ccc(F)cc3)c12
162	CCCCC(=O)NNC(=O)c1ccncc1
164 to 166	CCCC(=O)Nc1ccc(Sc2ccccc2)cc1NC(=NC(=O)OC)NC(=O)OC
156	Cc1nn(-c2c(Cl)cc(C(F)(F)F)cc2Cl)c(N)c1SC(Cl)(Cl)Cl
258 to 261	CC(=O)N1CCc2cc(C3=NNC(=O)CC3C)ccc21 (stereo not drawn)
145	CCNCC(=O)Nc1ccc2c(c1)C(=O)c1cc(NC(=O)CNCC)ccc1C2=O
231 to 232	C=C(Nc1nc(-c2ccccc2)c(-c2nc3ccccc3c(=O)n2-c2ccc(C)cc2)s1)c1ccco1
76 to 77	NC(=O)CCCN(Cc1ccccc1)Cc1ccccc1
144 to 146	Cc1cc(O)c(S(=O)Cc2ccc(Cl)cc2Cl)c(=O)o1 (stereo not drawn)
145 to 147	C#CCOc1cc(-n2nc3c(Cl)cc(Cl)cn3c2=O)c(F)cc1C#N

melting point [°C]	SMILES
196 to 198	C[C@H](NC(=O)c1cccnc1Oc1cccnc1)c1cccs1
239 to 240	COC(=O)c1ccc(-c2nc3cc([N+](=O)[O-])c([N+](=O)[O-])cc3[nH]2)cc1
> 250	Cc1cc(C(=O)O)c(O)cc1C(N)C(=O)O (stereo not drawn)
136 to 138	Cc1cc(NC(=O)Oc2ccc([N+](=O)[O-])cc2)cc(C(F)(F)F)c1
108	Cc1ccc(O)c(-c2cc3ccccn3n2)c1
231 to 233	Nc1c(-c2ccc(Br)cc2)nc2ccc(F)cc2c1C(=O)O
145	COc1cc(C(C)=O)cc(OC)c1OC(C)=O
147 to 148	CC(C)(C)c1nc2cc(N3CCCCC3)c([N+](=O)[O-])cc2s1
152 to 154	CSC1=Nc2ccc(Cl)cc2Nc2cscc21
33	N#CC(=O)c1ccccc1Cl
176 to 178	CCCOc1ccccc1C(=O)Nc1sccc1C(N)=O
75 to 77	OCCc1nccn1CCCCc1ccc(OCc2ccccc2)cc1
195 to 197	CCN1C(=O)CCCc2cc(Nc3ncc(Cl)c(Nc4ccccc4S(=O)(=O)C(C)C)n3)c(OC)cc21
248 to 252	Cc1c(CCc2ccccc2)c(=O)oc2cc(O)cc(O)c12
111 to 113	CC1(C)CC(=O)C(S(=O)(=O)Cc2ccc(Cl)cc2)=C(O)C1
212 to 213	CSc1[nH]ccc1[N+](=O)[O-]
47 to 48	CCCCc1cc2cc(C(=O)OCC)ccn2c1
151 to 154	CCOC(=O)c1cnn(-c2ccccc2N)c1O
118 to 119	O=C1N(CO)CCN1CCN1CCC(c2cn(-c3ccc(F)cc3)c3ccc(Cl)cc23)CC1
86 to 89	CS(=O)(=O)c1ccc(C(CC2CCCC2)C(=O)Nc2ccccn2)cc1C(F)(F)F (stereo not drawn)
138	CC1=C(C)C(=O)C(CCCCCC2=C(C)C(=O)C(C)=C(C)C2=O)=C(C)C1=O
70.7 to 71.2	CC(C)(C)[C@H](O)[C@@H](C#N)c1ccccc1 (racemic)
104 to 106	O=C(O)CCCOc1cccc(CCCCCCOc2ccc3c(c2CCCc2ccccc2)OCCC3=O)c1CCC(=O)O

SMILES	melting point [°C]
CNC(=O)Oc1cc(C)c(NC(=O)COC)cc1C	168 to 170
CN1C(=O)C(NC(=O)Nc2cccc(C#N)c2)C(=O)N(c2ccccc2)c2ccccc21 (stereo not drawn)	> 250
O=C(NC1N=C(c2ccccc2)c2ccccc2NC1=O)c1c[nH]c2ccccc12 (racemic)	265 to 268
CNC(=O)N1N=C(c2ccc(N)cc2)c2cc3c(cc2CC1C)OCO3 (stereo not drawn)	133 to 135
CN1C2CCC1CN(c1ccc(-c3ccccc3)nn1)C2	151
CCN1CC2OC(C3OCCO3)(C1)c1ccccc12 (stereo not drawn)	107 to 108
